Laboratory results reported in patent publication US20030083315A1, “Human chymase inhibitors” (priority 2000, published 2003).

Experiments:
[1] = biological target: T1, recombinant human mast cell chymase (Homo sapiens, UniProt P23946); test: Inhibition of enzyme activity of recombinant human mast cell chymase; format: biochemical; conditions: active-type human mast cell chymase, substrate succinyl-alanyl-histidyl-prolyl-phenylalanylparanitroanilide 0.5 mM, room temperature 5 min, absorption at 405
T1 construct: made in house; host or cells: insect cell (Tn 5) infected with recombinant baculovirus
T1 sequence (P23946 22-247): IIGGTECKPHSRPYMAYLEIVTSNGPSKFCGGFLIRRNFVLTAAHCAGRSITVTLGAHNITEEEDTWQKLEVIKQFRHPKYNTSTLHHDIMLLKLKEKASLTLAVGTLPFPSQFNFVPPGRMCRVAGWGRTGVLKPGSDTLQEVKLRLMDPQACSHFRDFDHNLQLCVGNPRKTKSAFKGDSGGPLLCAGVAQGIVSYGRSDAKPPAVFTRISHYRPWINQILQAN
Protocol: A recombinant pro-type human mast cell chymase was prepared according to the report by Urata et al., Journal of Biological Chemistry 17173, Vol. 266 (1991). That is, the product was purified from the supernatant of the culture broth of insect cell (Tn 5) infected with a recombinant baculovirus containing a cDNA encoding a human mast cell chymase by heparin sepharose (manufactured by Pharmacia Co.). The obtained chymase was further activated according to the report of Murakami et al., Journal of Biological Chemistry, 2218, Vol. 270 (1995), and then it was purified by heparin sepharose to yield an active-type human mast cell chymase.
To 50 μl of buffer A (0.5 to 3.0 M NaCl, 50 mM tris-HCl, pH 8.0) containing 1 to 5 ng of the active-type human mast cell chymase obtained by Example 19 was added 2 μl of a DMSO solution containing a compound of the present invention, and the mixture was made to react at room temperature for 5 min after the addition of 50 μl of the buffer A containing 0.5 mM of succinyl-alanyl-histidyl-prolyl-phenylalanylparanitroanilide (Bacchem Co.) as a substrate. The inhibition activity was determined by measuring the variation of the absorption at 405 nm with the passage of time.

[2] = Blood concentration after forced oral administration into rat stomach; format: in vivo; conditions: SD male rat, 30 mg/kg forced into the stomach under starvation, serum, unchanged compound by HPLC; for AUC: read-out: AUC (extrapolation)
Protocol: By using a SD male rat, a compound having the compound number of 121, 127 or 363 was forcedly administered at a dose of 30 mg/kg into the stomach under starvation, and blood samples were taken out at 30 min, 1 hr, 2 hr, 4 hr and 8 hr after the administration. Directly after the collection of the blood samples, the serum component was separated, the compound of the present invention was extracted by a general method of solid extraction, and the obtained sample was subjected to HPLC analysis by using an ODS column to measured the amount of the unchanged compound.

[3] = In vitro metabolic test using hepatic microsome (Ms); format: in vitro ADME; conditions: hepatic microsome 1.0 mg/mL, substrate 5.0 μM, 37° C.; for MR (maximum speed of metabolism): NADPH 1.0 mM
Protocol: Letting the amount of the unchanged body at the initial concentration (reaction time 0 min) 100%, the speed of metabolism is determined from the amount of the decrease of the unchanged body at each reaction time, and the maximum speed of metabolism (MR) is evaluated.
MR=(the substrate concentration at reaction time 0 min−the substance concentration after the reaction)÷reaction time÷protein concentration (nmol/min/mg-protein)

SMILES	IC50 [1] [nM]	Cmax [2] [µg/mL]	AUC [2] [µg·h/mL]	Remaining Rate (%) of Substrate at 30 min [3] [%]	MR (maximum speed of metabolism) [3] [nmol/min/mg-protein]
Cc1ccc(C)c(Cn2c(SCCCC(=O)O)nc3cc(C#N)ccc32)c1 [Compound No. 337, 4-(1-((2,5-dimethylphenyl)methyl)-5-cyanobenzimidazole-2-ylthio)butyric Acid]	10 to 100				
Cc1cc2nc(SCCCC(=O)O)n(Cc3cccc4cccc(C)c34)c2cc1C [Compound No. 493, 4-(1-((8-methyl-1-naphthyl)methyl)-5,6-dimethylbenzimidazole-2-ylthio)-butyric Acid]	1 to 10				
N#Cc1ccc2c(c1)nc(SCCCC(=O)O)n2Cc1cccc2ccccc12 [Compound No. 363, 4-(1-((1-naphthyl)methyl)-5-cyanobenzimidazole-2-ylthio)butyric acid]	10 to 100	77	182	57.6	0.147
CC(C)(CC(=O)O)C(=O)CSc1nc2ccccc2n1Cc1cccc2ccccc12 [Compound No. 494, 5-(1-((1-nanhthyl)methyl)benzimidazole-2-ylthio)-4-oxo-3,3-dimethylvaleric Acid]	10 to 100				
O=C(O)CCSc1nc2ccccc2n1Cc1cccc2ccccc12 [Compound No. 496, 3-(1-((1-naphthyl)methyl)-benzimidazole-2-ylthio)propanoic acid]	10 to 100				
Cc1cc2nc(SCCCC(=O)O)n(Cc3cccc4ccccc34)c2cc1C [Compound No. 129, 4-(1-((1-naphthyl)methyl)-5,6-dimethylbenzimidazole-2-ylthio)butyric acid]	1 to 10				
Cc1cccc2cccc(Cn3c(SCCCC(=O)O)nc4ccccc43)c12 [Compound No. 492, 4-(1-((8-methyl-1-naphthyl)methyl)benzimidazole-2-ylthio)butyric Acid]	1 to 10				
O=C(O)CCCCSc1nc2ccccc2n1Cc1cccc2ccccc12 [compound 497, 5-(1-((1-naphthyl)methyl)-benzimidazole-2-ylthio)valeric acid]	10 to 100				
COc1ccc2c(c1)nc(SCCCC(=O)O)n2Cc1cccc2ccccc12 [Compound No. 127, 4-((1-((1-naphthyl)methyl)-5-methoxybenzimidazole)-2-ylthio)butyric acid]	1 to 10	76	181	21.6	0.190
CCOc1ccc2c(c1)nc(SCCCC(=O)O)n2Cc1cccc2ccccc12 [Compound No. 128, 4-(1-((1-naphthyl)methyl)-5-ethoxybenzimidazole-2-ylthio)butyric acid]	10 to 100				

Results, then the compound that gave them:

IC50 [1] [nM]	Cmax [2] [µg/mL]	AUC [2] [µg·h/mL]	Remaining Rate (%) of Substrate at 30 min [3] [%]	MR (maximum speed of metabolism) [3] [nmol/min/mg-protein]	SMILES
10 to 100					Cc1cc2nc(S(=O)(=O)CCCC(=O)O)n(Cc3cccc4ccccc34)c2cc1C [Compound No. 498, 4-(1-((1-naphthyl)methyl)-5,6-dimethylbenzimidazole-2-ylsulfonyl)butyric acid]
10 to 100					COc1ccc2c(c1)nc(SCCCC(=O)O)n2Cc1cc(C)ccc1C [Compound No. 495, 4-(1-((2,5-dimethylphenil)methyl)-5-methoxybenzimidazole-2-ylthio)butyric Acid]
10 to 100					O=C(O)CCCSc1nc2cc(C(F)(F)F)ccc2n1Cc1cccc2ccccc12 [Compound No. 126, 4-(1-((1-naphthyl)methyl)-5-trifluoromethylbenzimidazole-2-ylthio)butyric Acid]
1 to 10	122	226	56.6	0.235	O=C(O)CCCSc1nc2ccccc2n1Cc1cccc2ccccc12 [Compound No. 121, 4-(1-((1-naphthyl)methyl)benzimidazole-2-ylthio)butyric acid]
10 to 100					O=C(O)CCCSc1nc2cc(F)c(F)cc2n1Cc1cccc2ccccc12 [Compound No. 131, 4-(1-((1-naphthyl)methyl)-5,6-difluorobenzimidazole-2-ylthio)butyric acid]
